Experimental data published in patent publication US11407819B2, “Compositions and use of a fibrinogen binding motif present in EFB and COA for therapeutics and vaccines against Staphylococcus aureus” (priority 2013, dated 2022).

Molecular target: Fibrinogen-D fragment
Assay: Isothermal titration calorimetry (VP-ITC) of Coa peptides with Fg-D fragment
Set-up: species or system human
Details: one-binding site model, 10 μM Fg-D, read-out: dissociation constant (KD) to Fg-D
Description: Binding isotherms for the interaction of Fg-D with Coa peptide sCoa-RI (FIG. 14A), sCoa-R13 (FIG. 14B) and sCoa-RV (FIG. 14C) were generated by titrating the peptides (˜200 μM) into an ITC cell containing 10 μM Fg-D. The top panels show heat difference upon injection of coa peptides, and the lower panels show integrated heat of injections. The data were fitted to a one-binding site model (bottom panels), and binding affinities are expressed as dissociation constants (KD) or the reciprocal of the association constants determined by Microcal Origin software. N represents the binding ratio. To generate more quantitative binding data for the Coa peptide Fg interaction isothermal titration calorimetry and titrated the Coa peptides into a solution containing a fixed concentration of Fg-D fragments was used.
Isothermal titration calorimetry—The interaction between Coa peptides and the soluble, isolated Fibrinogen-D fragment was further characterized by isothermal titration calorimetry (ITC) using a VP-ITC microcalorimeter. The Fibrinogen-D fragment used in these studies was generated by digesting full length Fibrinogen with plasmin for 4 h and fractionating the digestion products by gel filtration chromatography. The ITC cell contained 10 μM Fibrinogen-D fragments and the syringe contained 150-200 μM Coa peptides in TBS (25 mM Tris, 3.0 mM KCl and 140 mM NaCl, pH 7.4). […]

Sequence of Fibrinogen-D fragment (P02671 130-216 limits assumed): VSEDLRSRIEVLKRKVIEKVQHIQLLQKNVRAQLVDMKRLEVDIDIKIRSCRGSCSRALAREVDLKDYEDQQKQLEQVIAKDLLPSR
Sequence of Fibrinogen-D fragment (P02675 164-491 limits assumed, further chain): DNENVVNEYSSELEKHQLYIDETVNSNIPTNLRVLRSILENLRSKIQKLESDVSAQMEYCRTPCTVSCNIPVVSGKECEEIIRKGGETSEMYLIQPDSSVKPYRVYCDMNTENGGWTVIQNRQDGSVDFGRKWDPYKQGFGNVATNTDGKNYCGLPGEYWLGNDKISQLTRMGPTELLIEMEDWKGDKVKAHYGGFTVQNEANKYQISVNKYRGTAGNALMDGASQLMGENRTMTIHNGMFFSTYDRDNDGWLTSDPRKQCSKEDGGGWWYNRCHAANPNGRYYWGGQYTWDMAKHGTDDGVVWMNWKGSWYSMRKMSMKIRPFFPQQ
Sequence of Fibrinogen-D fragment (P02679 114-432 limits assumed, further chain): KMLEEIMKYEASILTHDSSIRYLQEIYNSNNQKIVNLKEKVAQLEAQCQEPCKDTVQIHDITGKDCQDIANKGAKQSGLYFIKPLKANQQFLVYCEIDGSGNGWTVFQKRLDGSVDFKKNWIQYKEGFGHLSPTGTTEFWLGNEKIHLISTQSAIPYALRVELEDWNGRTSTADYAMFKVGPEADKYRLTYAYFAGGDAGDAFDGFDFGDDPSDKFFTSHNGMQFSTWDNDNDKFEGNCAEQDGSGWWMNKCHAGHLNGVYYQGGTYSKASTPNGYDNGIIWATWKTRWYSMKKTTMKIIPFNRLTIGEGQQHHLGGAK

Substance “sCoa-RI: synthetic peptide, first 27 residues of repeat region, Coa 506-532 (ETNAYNVTTHANGQVSYGARPTYKKPS)” has a Kd of 88 nM.
